The values below come from patent US9133186B2, “Hetero ring-fused imidazole derivative having AMPK activating effect” (Shionogi & Co., Ltd., priority 2010, dated 2015).

The test addresses T1, human AMPK α1β1γ1 enzyme (Homo sapiens, UniProt Q13131+Q9Y478).
T1 construct: purchased Carna Biosciences, Inc
Nature of the test: AMPK activator evaluation, Test Example 1 (mobility shift, FL-Peptide 7). As to conditions: human AMPK α1β1γ1, control without compound = 100%; for Emax: read-out: Emax (maximum rate of increase in activity within the measurement range). The class given is biochemical. How it is done: To a buffer solution consisting of a 50 mM HEPES-NaOH buffer solution (pH 7.0), 100 mM NaCl, 10 mM magnesium chloride, 0.1% bovine serum albumin, 0.2 mM sodium orthovanadate(V), 1 mM ethylene glycol-bis(2-aminoethyl ether)-N,N,N′,N′-tetraacetic acid (EGTA), 5 mM disodium (3-glycerophosphate and 2 mM dithiothreitol, a human AMPK α1β1γ1 enzyme (manufactured by Carna Biosciences, Inc.) was added in an amount to give a conversion rate of approximately 10% by reaction for 2 hours, and a compound dissolved in DMSO was added thereto so as to have a 1% DMSO concentration. The obtained liquid was left to stand for 10 minutes.
To the liquid, a substrate solution consisting of a 50 mM HEPES-NaOH buffer solution (pH 7.0), 100 mM NaCl, 10 mM magnesium chloride, 0.1% bovine serum albumin, 0.2 mM sodium orthovanadate(V), 1 mM ethylene glycol-bis(2-aminoethyl ether)-N,N,N′,N′ tetraacetic acid (EGTA), 5 mM disodium β-glycerophosphate, 2 mM dithiothreitol, 0.4 mM ATP and 3 μM FL-Peptide 7 (manufactured by Caliper Life Sciences, Inc.) was added in equal amount (10 μl in total). The obtained liquid was allowed to react at 25° C. for 2 hours, and 10 μl of 20 mM EDTA was then added thereto to stop the reaction.
To detect phosphorylated fluorescent substrates, the reaction liquid was applied to a measuring device, LabChip EZ Reader II manufactured by Caliper Life Science, Inc., for detecting fluorescence by using differences in mobility due to differences in charge. The setting conditions for the device were pressure, −1.5 PSI; upstream voltage, −2250 V; downstream voltage, −400 V; post sample buffer sip time, 40 seconds; final delay, 120 seconds; and peak order, Product First.

T1 sequence (Q13131 10-559 limits assumed): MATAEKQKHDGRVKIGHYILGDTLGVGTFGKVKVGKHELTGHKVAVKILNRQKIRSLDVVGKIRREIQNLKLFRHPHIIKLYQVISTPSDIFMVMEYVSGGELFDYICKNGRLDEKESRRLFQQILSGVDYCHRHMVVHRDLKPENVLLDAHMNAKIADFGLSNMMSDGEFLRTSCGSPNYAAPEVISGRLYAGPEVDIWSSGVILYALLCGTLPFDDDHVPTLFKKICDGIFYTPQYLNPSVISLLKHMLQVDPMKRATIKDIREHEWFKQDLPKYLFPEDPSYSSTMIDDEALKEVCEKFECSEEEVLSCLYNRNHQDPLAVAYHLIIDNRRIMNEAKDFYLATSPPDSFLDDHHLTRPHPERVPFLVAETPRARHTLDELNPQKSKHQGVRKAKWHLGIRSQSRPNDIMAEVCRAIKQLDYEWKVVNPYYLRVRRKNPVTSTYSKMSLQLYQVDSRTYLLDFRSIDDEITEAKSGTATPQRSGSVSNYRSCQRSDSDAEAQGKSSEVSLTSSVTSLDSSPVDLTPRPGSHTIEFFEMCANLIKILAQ
T1 sequence (Q9Y478 whole entry): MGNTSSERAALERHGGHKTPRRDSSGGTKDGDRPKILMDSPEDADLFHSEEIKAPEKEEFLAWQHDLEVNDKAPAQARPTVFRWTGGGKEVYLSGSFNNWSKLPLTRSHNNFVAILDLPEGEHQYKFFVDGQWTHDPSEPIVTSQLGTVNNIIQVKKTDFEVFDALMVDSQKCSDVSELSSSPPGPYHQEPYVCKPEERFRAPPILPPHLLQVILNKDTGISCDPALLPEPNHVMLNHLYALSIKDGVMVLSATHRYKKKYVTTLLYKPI
T1 sequence (P54619 whole entry partner): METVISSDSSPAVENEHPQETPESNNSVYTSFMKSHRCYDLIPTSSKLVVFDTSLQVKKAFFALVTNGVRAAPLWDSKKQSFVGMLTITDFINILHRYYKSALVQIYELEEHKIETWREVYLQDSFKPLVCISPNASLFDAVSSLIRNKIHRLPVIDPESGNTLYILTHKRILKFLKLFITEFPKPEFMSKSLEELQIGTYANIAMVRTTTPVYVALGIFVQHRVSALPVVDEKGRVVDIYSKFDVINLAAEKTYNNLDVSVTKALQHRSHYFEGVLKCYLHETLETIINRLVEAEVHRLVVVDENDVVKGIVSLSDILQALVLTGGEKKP

Turning to `Cc1ccc(Oc2nc3nc(-c4ccc(C(C)(C)O)cc4)c(Cl)cc3[nH]2)cc1C(=O)O` [Compound C-63], the “EC150 (compound concentration showing 150% relative to the control)” value is recorded as 16 nM and the Emax was 331%.
The like results for `CCc1ccc(Oc2nc3nc(-c4ccc(N5CCOCC5)cc4)c(Cl)cc3[nH]2)cc1C(=O)O` [Compound C-70] were, in that order, 4.2 nM and 335%.
Taken in the same sequence, the figures for `Cc1ccc(Oc2nc3nc(-c4ccc(N5CCCCC5=O)cc4)c(Cl)cc3[nH]2)cc1C(=O)O` [Compound C-88] were 120 nM and 298%.
On to `CCc1ccc(Oc2nc3nc(-c4ccc(N5CCOCC5)cc4)c(Cl)cc3[nH]2)cn1` [Compound C-89], for which the “EC150 (compound concentration showing 150% relative to the control)” value stood at 470 nM and the Emax was determined as 242%.
Consider `Cc1ccc(Oc2nc3nc(C#Cc4ccccc4)c(Cl)cc3[nH]2)cc1C(=O)O` [Compound C-95], for which the “EC150 (compound concentration showing 150% relative to the control)” value amounted to 17 nM and the maximum response (Emax) amounted to 309%.
For the compound `Cc1ccc(Oc2nc3nc(-c4ccc(N5CCOCC5)cc4)c(C(F)(F)F)cc3[nH]2)cc1C(=O)O` [Compound C-96], the “EC150 (compound concentration showing 150% relative to the control)” value was found to be 99 nM and the Emax was found to be 326%.
Taken in the same sequence, the figures for `CC(C)(C(N)=O)c1ccc(Oc2nc3nc(-c4ccc(N5CCOCC5)cc4)c(Cl)cc3[nH]2)cc1` [Compound C-98] were 1700 nM and 165%.
The like results for `CC(C)(CO)c1ccc(Oc2nc3nc(-c4ccc(N5CCOCC5)cc4)c(Cl)cc3[nH]2)cc1` [Compound C-99] were, in that order, 170 nM and 205%.
The like results for `COc1ccc(Oc2nc3nc(-c4ccc(N5CCOCC5)cc4)c(Cl)cc3[nH]2)cn1` [Compound C-100] were, in that order, 590 nM and 212%.
Take `CC(C)(C(=O)NCCO)c1ccc(Oc2nc3nc(-c4ccc(N5CCOCC5)cc4)c(Cl)cc3[nH]2)cc1` [Compound C-107]: the “EC150 (compound concentration showing 150% relative to the control)” value is 300 nM and the Emax turned out to be 232%.
On to `O=P(O)(O)c1cccc(Oc2nc3cc(Cl)c(-c4ccc(N5CCOCC5)cc4)nc3[nH]2)c1` [Compound C-118], for which the “EC150 (compound concentration showing 150% relative to the control)” value was found to be 2.1 nM and the Emax is 334%.
As for `CC(=O)NC(C)(C)c1ccc(Oc2nc3nc(-c4ccc(N5CCOCC5)cc4)c(Cl)cc3[nH]2)cc1` [Compound C-119], the “EC150 (compound concentration showing 150% relative to the control)” value is given as 130 nM and the Emax worked out at 237%.
Take `CC(=O)NC(C)(C)c1ccc(Oc2nc3nc(-c4ccc(N5CCOCC5)cc4)c(Cl)cc3[nH]2)cn1` [Compound D-1]: the “EC150 (compound concentration showing 150% relative to the control)” value worked out at 430 nM and the Emax amounted to 182%.
Taken in the same sequence, the figures for `CC(=O)NC(C)(C)c1ncc(Oc2nc3nc(-c4ccc(N5CCOCC5)cc4)c(Cl)cc3[nH]2)cn1` [Compound D-2] were 220 nM and 255%.
The like results for `CN1CCc2cc(-c3nc4nc(Oc5ccc(C(C)(C)C(N)=O)cc5)[nH]c4cc3Cl)ccc21` [Compound D-3] were, in that order, 220 nM and 192%.
As to `CC(C)(C(N)=O)c1ccc(Oc2nc3nc(-c4ccc(C5(COC(N)=O)CC5)cc4)c(Cl)cc3[nH]2)cc1` [Compound D-4], the “EC150 (compound concentration showing 150% relative to the control)” value was found to be 70 nM and the Emax came out at 207%.
Regarding `CC(C)(C(N)=O)c1ccc(Oc2nc3nc(-c4ccc(N5CCOCC5)cc4)c(Cl)cc3[nH]2)cn1` [Compound D-7], the “EC150 (compound concentration showing 150% relative to the control)” value is 1600 nM and the Emax stood at 285%.
The like results for `CC(=O)NC(C)(C)c1ccc(Oc2nc3nc(-c4ccc(N5CCOCC5)cc4)c(Cl)cc3[nH]2)cc1F` [Compound D-8] were, in that order, 39 nM and 244%.
Taken in the same sequence, the figures for `CC(C)(CO)c1ccc(Oc2nc3nc(-c4ccc(N5CCOCC5)cc4)c(Cl)cc3[nH]2)cn1` [Compound D-9] were 380 nM and 186%.
Regarding `CC(C)(C(N)=O)c1ccc(Oc2nc3nc(-c4ccc(N5CCOCC5)cc4)c(Cl)cc3[nH]2)cc1F` [Compound D-12], the “EC150 (compound concentration showing 150% relative to the control)” value is recorded as 69 nM and the Emax came to 226%.
The like results for `CC(=O)NC(C)(C)c1ccc(Oc2nc3nc(-c4ccc(OCCO)cc4)c(Cl)cc3[nH]2)cc1` [Compound D-16] were, in that order, 8.5 nM and 280%.
Taken in the same sequence, the figures for `CC(=O)NC(C)(C)c1ccc(Oc2nc3nc(-c4ccc(CCO)cc4)c(Cl)cc3[nH]2)cc1` [Compound D-17] were 11 nM and 282%.
Taken in the same sequence, the figures for `CC(C)(C(=O)O)c1cccc(Oc2nc3nc(-c4ccc(N5CCOCC5)cc4)c(Cl)cc3[nH]2)c1` [Compound D-18] were 21 nM and 325%.
`CC(=O)NC(C)(C)c1ccc(Oc2nc3nc(-c4ccc(N(C)C)cc4)c(Cl)cc3[nH]2)cc1` [Compound D-21]: the “EC150 (compound concentration showing 150% relative to the control)” value was 41 nM and the Emax worked out at 351%.
Consider `CC(C)(C(N)=O)c1ccc(Oc2nc3nc(-c4ccc(C5(CO)CC5)cc4)c(Cl)cc3[nH]2)cc1` [Compound D-24], for which the “EC150 (compound concentration showing 150% relative to the control)” value amounted to 140 nM and the Emax turned out to be 198%.
As to `CC(C)(NC(=O)CO)c1ccc(Oc2nc3nc(-c4ccc(N5CCOCC5)cc4)c(Cl)cc3[nH]2)cc1` [Compound D-25], the “EC150 (compound concentration showing 150% relative to the control)” value is on record as 31 nM and the Emax came out at 225%.
Taken in the same sequence, the figures for `CC(=O)NC(C)(C)c1ccc(Oc2nc3nc(-c4cccc(N(C)C)c4)c(Cl)cc3[nH]2)cc1` [Compound D-26] were 82 nM and 282%.
With `CNc1ncc(Oc2nc3nc(-c4ccc(N5CCOCC5)cc4)c(Cl)cc3[nH]2)cn1` [Compound D-31], the “EC150 (compound concentration showing 150% relative to the control)” value was determined as 19 nM and the Emax worked out at 314%.
Taken in the same sequence, the figures for `CC(=O)NCC(C)(C)c1ccc(Oc2nc3nc(-c4ccc(N5CCOCC5)cc4)c(Cl)cc3[nH]2)cc1` [Compound D-33] were 52 nM and 220%.
As to `CC(=O)NC(C)(C)c1ccc(Oc2nc3nc(-c4ccc(-c5ccccc5O)cc4)c(Cl)cc3[nH]2)cc1` [Compound D-39], the “EC150 (compound concentration showing 150% relative to the control)” value was 0.6 nM and the Emax turned out to be 310%.
Taken in the same sequence, the figures for `CNCC(C)(C)c1ccc(Oc2nc3nc(-c4ccc(N5CCOCC5)cc4)c(Cl)cc3[nH]2)cc1` [Compound D-41] were 8300 nM and 159%.
Taken in the same sequence, the figures for `CC(=O)NC(C)(C)c1ccc(Oc2nc3nc(-c4ccc(C5(CO)CC5)cc4)c(Cl)cc3[nH]2)cn1` [Compound D-42] were 260 nM and 187%.
Taken in the same sequence, the figures for `COCC(=O)NC(C)(C)c1ccc(Oc2nc3nc(-c4ccc(N5CCOCC5)cc4)c(Cl)cc3[nH]2)cc1` [Compound D-50] were 11 nM and 225%.
In the case of `CC(C)(NS(C)(=O)=O)c1ccc(Oc2nc3nc(-c4ccc(N5CCOCC5)cc4)c(Cl)cc3[nH]2)cc1` [Compound D-52], the “EC150 (compound concentration showing 150% relative to the control)” value is 2800 nM and the Emax was determined as 169%.
Regarding `CC(C)(C(N)=O)c1ncc(Oc2nc3nc(-c4ccc(N5CCOCC5)cc4)c(Cl)cc3[nH]2)cn1` [Compound D-54], the “EC150 (compound concentration showing 150% relative to the control)” value turned out to be 110 nM and the Emax was 252%.
For `CC(C)(C(=O)NCCO)c1ccc(Oc2nc3nc(-c4ccc(N5CCOCC5)cc4)c(Cl)cc3[nH]2)cn1` [Compound D-55], the “EC150 (compound concentration showing 150% relative to the control)” value is 2700 nM and the Emax is 177%.
Consider `COC(=O)NC(C)(C)c1ccc(Oc2nc3nc(-c4ccc(N5CCOCC5)cc4)c(Cl)cc3[nH]2)cn1` [Compound D-56], for which the “EC150 (compound concentration showing 150% relative to the control)” value was found to be 68 nM and the Emax was 211%.
Taken in the same sequence, the figures for `CC(=O)NC(C)(C)c1ccc(Oc2nc3nc(-c4ccc(C5(CO)CCC5)cc4)c(Cl)cc3[nH]2)cc1` [Compound D-58] were 66 nM and 224%.
As to `CC(=O)NC(C)(C)c1ccc(Oc2nc3nc(-c4ccc(NCCO)cc4)c(Cl)cc3[nH]2)cc1` [Compound D-62], the “EC150 (compound concentration showing 150% relative to the control)” value turned out to be 80 nM and the Emax turned out to be 267%.

For orientation: Emax means the size of the effect at its maximum, as opposed to the concentration needed.
